Data taken from PubChem BioAssay (NCI).
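Exposure lasted 48 hours, with cells grown in 96-well plates and compounds tested at five concentrations. TGI: total growth inhibition.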

Legend:
Test in all cases: NCI tumour cell line growth inhibition, 48 h
SK-MEL-2 melanoma = tested on: SK-MEL-2 melanoma
UACC-257 melanoma = tested on: UACC-257 melanoma
HCC-2998 colon = tested on: HCC-2998 colon
HT29 colon = tested on: HT29 colon
T-47D breast = tested on: T-47D breast
NCI-H226 lung = tested on: NCI-H226 lung
MOLT-4 leukemia = tested on: MOLT-4 leukemia
LOX IMVI melanoma = tested on: LOX IMVI melanoma
SN12C renal = tested on: SN12C renal
SK-OV-3 ovarian = tested on: SK-OV-3 ovarian
UACC-62 melanoma = tested on: UACC-62 melanoma
SF-268 CNS = tested on: SF-268 CNS
SW-620 colon = tested on: SW-620 colon
ACHN renal = tested on: ACHN renal
IGROV1 ovarian = tested on: IGROV1 ovarian
NCI/ADR-RES ovarian = tested on: NCI/ADR-RES ovarian
OVCAR-5 ovarian = tested on: OVCAR-5 ovarian
MALME-3M melanoma = tested on: MALME-3M melanoma
OVCAR-4 ovarian = tested on: OVCAR-4 ovarian
786-0 renal = tested on: 786-0 renal
K-562 leukemia = tested on: K-562 leukemia
RPMI-8226 leukemia = tested on: RPMI-8226 leukemia
SF-539 CNS = tested on: SF-539 CNS
SNB-19 CNS = tested on: SNB-19 CNS
MDA-MB-231 breast = tested on: MDA-MB-231 breast
HOP-92 NSCLC = tested on: HOP-92 NSCLC
OVCAR-8 ovarian = tested on: OVCAR-8 ovarian
PC-3 prostate = tested on: PC-3 prostate
HS 578T breast = tested on: HS 578T breast
A498 renal = tested on: A498 renal
HCT-116 colon = tested on: HCT-116 colon
MCF7 breast = tested on: MCF7 breast
M14 melanoma = tested on: M14 melanoma
KM12 colon = tested on: KM12 colon
MDA-MB-435 = tested on: MDA-MB-435
RXF 393 renal = tested on: RXF 393 renal
NCI-H23 lung = tested on: NCI-H23 lung
BT-549 breast = tested on: BT-549 breast
SNB-75 CNS = tested on: SNB-75 CNS
A549 NSCLC = tested on: A549 NSCLC
SR leukemia = tested on: SR leukemia
COLO 205 colon = tested on: COLO 205 colon
HCT-15 colon = tested on: HCT-15 colon
EKVX NSCLC = tested on: EKVX NSCLC
TK-10 renal = tested on: TK-10 renal
CAKI-1 renal = tested on: CAKI-1 renal
SK-MEL-28 melanoma = tested on: SK-MEL-28 melanoma
U251 CNS = tested on: U251 CNS
OVCAR-3 ovarian = tested on: OVCAR-3 ovarian
SK-MEL-5 melanoma = tested on: SK-MEL-5 melanoma
DU-145 prostate = tested on: DU-145 prostate
SF-295 CNS = tested on: SF-295 CNS
NCI-H522 lung = tested on: NCI-H522 lung
MDA-N = tested on: MDA-N
UO-31 renal = tested on: UO-31 renal
HOP-62 NSCLC = tested on: HOP-62 NSCLC
NCI-H460 lung = tested on: NCI-H460 lung
CCRF-CEM leukemia = tested on: CCRF-CEM leukemia
HL-60(TB) leukemia = tested on: HL-60(TB) leukemia

Nc1ccn(C2OC(COP(=O)(O)OCC3OC(n4cc(F)c(=O)[nH]c4=O)CC3O)C(O)C2O)c(=O)n1 (stereo not drawn)
TGI (SK-MEL-2 melanoma): > 100 µM
TGI (UACC-257 melanoma): > 100 µM
TGI (HCC-2998 colon): > 100 µM
TGI (HT29 colon): > 100 µM
TGI (T-47D breast): > 100 µM
TGI (NCI-H226 lung): > 100 µM
TGI (MOLT-4 leukemia): 7.95 µM
TGI (LOX IMVI melanoma): > 100 µM
TGI (SN12C renal): > 100 µM
TGI (SK-OV-3 ovarian): > 100 µM
TGI (UACC-62 melanoma): > 100 µM
TGI (SF-268 CNS): > 100 µM
TGI (SW-620 colon): > 100 µM
TGI (ACHN renal): > 34.2 µM
TGI (IGROV1 ovarian): > 100 µM
TGI (NCI/ADR-RES ovarian): > 100 µM
TGI (OVCAR-5 ovarian): > 100 µM
TGI (MALME-3M melanoma): > 100 µM
TGI (OVCAR-4 ovarian): > 100 µM
TGI (786-0 renal): > 100 µM
TGI (K-562 leukemia): > 100 µM
TGI (RPMI-8226 leukemia): > 100 µM
TGI (SF-539 CNS): > 100 µM
TGI (SNB-19 CNS): > 100 µM
TGI (MDA-MB-231 breast): > 100 µM
TGI (HOP-92 NSCLC): > 100 µM
TGI (OVCAR-8 ovarian): > 100 µM
TGI (PC-3 prostate): > 100 µM
TGI (HS 578T breast): > 100 µM
TGI (A498 renal): 99.3 µM
TGI (HCT-116 colon): > 100 µM
TGI (MCF7 breast): > 100 µM
TGI (M14 melanoma): 12.9 µM
TGI (KM12 colon): > 100 µM
TGI (MDA-MB-435): > 100 µM
TGI (RXF 393 renal): > 100 µM
TGI (NCI-H23 lung): > 42.1 µM
TGI (BT-549 breast): > 100 µM
TGI (SNB-75 CNS): > 100 µM
TGI (A549 NSCLC): > 100 µM
TGI (SR leukemia): > 88.6 µM
TGI (COLO 205 colon): > 100 µM
TGI (HCT-15 colon): > 100 µM
TGI (EKVX NSCLC): > 100 µM
TGI (TK-10 renal): > 100 µM
TGI (CAKI-1 renal): > 50.1 µM
TGI (SK-MEL-28 melanoma): > 100 µM
TGI (U251 CNS): > 100 µM
TGI (OVCAR-3 ovarian): > 100 µM
TGI (SK-MEL-5 melanoma): > 100 µM
TGI (DU-145 prostate): > 100 µM
TGI (SF-295 CNS): > 100 µM
TGI (NCI-H522 lung): > 100 µM
TGI (MDA-N): > 100 µM
TGI (UO-31 renal): > 100 µM

CCC1([N+](=O)[O-])CC2C=CC1C2 (stereo not drawn)
TGI (SK-MEL-2 melanoma): > 100 µM
TGI (UACC-257 melanoma): > 100 µM
TGI (HT29 colon): > 100 µM
TGI (T-47D breast): > 100 µM
TGI (NCI-H226 lung): > 100 µM
TGI (MOLT-4 leukemia): > 100 µM
TGI (LOX IMVI melanoma): > 100 µM
TGI (SN12C renal): > 100 µM
TGI (SK-OV-3 ovarian): > 100 µM
TGI (UACC-62 melanoma): > 100 µM
TGI (SF-268 CNS): > 100 µM
TGI (HOP-62 NSCLC): > 100 µM
TGI (SW-620 colon): > 100 µM
TGI (ACHN renal): > 100 µM
TGI (IGROV1 ovarian): > 100 µM
TGI (NCI/ADR-RES ovarian): > 100 µM
TGI (OVCAR-5 ovarian): > 100 µM
TGI (MALME-3M melanoma): > 100 µM
TGI (OVCAR-4 ovarian): > 100 µM
TGI (786-0 renal): > 100 µM
TGI (K-562 leukemia): > 100 µM
TGI (RPMI-8226 leukemia): > 100 µM
TGI (SF-539 CNS): > 100 µM
TGI (SNB-19 CNS): > 100 µM
TGI (NCI-H460 lung): > 100 µM
TGI (MDA-MB-231 breast): > 100 µM
TGI (HOP-92 NSCLC): > 100 µM
TGI (OVCAR-8 ovarian): > 100 µM
TGI (PC-3 prostate): > 100 µM
TGI (CCRF-CEM leukemia): > 100 µM
TGI (HS 578T breast): > 100 µM
TGI (A498 renal): > 100 µM
TGI (HCT-116 colon): > 100 µM
TGI (MCF7 breast): > 100 µM
TGI (HL-60(TB) leukemia): > 100 µM
TGI (M14 melanoma): > 100 µM
TGI (KM12 colon): > 100 µM
TGI (MDA-MB-435): > 100 µM
TGI (RXF 393 renal): > 100 µM
TGI (NCI-H23 lung): > 100 µM
TGI (BT-549 breast): > 100 µM
TGI (SNB-75 CNS): > 100 µM
TGI (A549 NSCLC): > 100 µM
TGI (SR leukemia): > 100 µM
TGI (COLO 205 colon): > 100 µM
TGI (HCT-15 colon): > 100 µM
TGI (EKVX NSCLC): > 100 µM
TGI (TK-10 renal): > 100 µM
TGI (CAKI-1 renal): > 100 µM
TGI (SK-MEL-28 melanoma): > 100 µM
TGI (U251 CNS): > 100 µM
TGI (OVCAR-3 ovarian): > 100 µM
TGI (SK-MEL-5 melanoma): > 100 µM
TGI (DU-145 prostate): > 100 µM
TGI (SF-295 CNS): > 100 µM
TGI (NCI-H522 lung): > 100 µM
TGI (MDA-N): > 100 µM
TGI (UO-31 renal): > 100 µM
